# Data from patent publication US10421761B2, “Compounds for kinase modulation, and indications therefor” (Plexxikon Inc., priority 2013, dated 2019).
# Where two headings read alike, the source gives them in different places.
# Columns and labels:
# BRAF V600E = target: T1, BRAF V600E (Homo sapiens, UniProt P15056, V600E); assay: BRAF V600E biochemical kinase activity assay (AlphaScreen, biotin-MEK1 substrate); conditions: BRAF V600E biochemical inhibitory activity
# T1 construct: purchased Upstate Biotechnology
# T1 sequence (P15056 whole entry V600E): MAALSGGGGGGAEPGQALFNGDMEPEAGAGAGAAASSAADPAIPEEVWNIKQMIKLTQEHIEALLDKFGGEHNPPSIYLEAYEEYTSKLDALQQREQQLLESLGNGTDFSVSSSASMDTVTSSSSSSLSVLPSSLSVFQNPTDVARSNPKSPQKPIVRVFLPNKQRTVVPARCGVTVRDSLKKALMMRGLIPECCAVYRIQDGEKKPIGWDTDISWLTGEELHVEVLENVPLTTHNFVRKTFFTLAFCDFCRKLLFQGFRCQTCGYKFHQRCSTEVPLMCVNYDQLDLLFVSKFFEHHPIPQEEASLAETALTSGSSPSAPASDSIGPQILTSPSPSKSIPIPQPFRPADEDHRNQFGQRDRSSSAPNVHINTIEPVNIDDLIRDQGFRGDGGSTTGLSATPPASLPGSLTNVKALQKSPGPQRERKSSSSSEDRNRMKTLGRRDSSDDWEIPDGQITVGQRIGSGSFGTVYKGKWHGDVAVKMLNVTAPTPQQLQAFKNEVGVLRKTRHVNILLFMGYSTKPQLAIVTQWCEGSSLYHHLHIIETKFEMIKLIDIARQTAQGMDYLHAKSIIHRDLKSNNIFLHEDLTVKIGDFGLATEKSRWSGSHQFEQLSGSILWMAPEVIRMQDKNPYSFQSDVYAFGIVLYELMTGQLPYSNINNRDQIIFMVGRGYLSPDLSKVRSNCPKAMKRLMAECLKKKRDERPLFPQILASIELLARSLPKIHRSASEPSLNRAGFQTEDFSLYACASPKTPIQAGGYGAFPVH
# [1] = tested on: A375 (BRAF V600E) cell line; assay: A375 P-ERK inhibition assay (AlphaScreen); format: cell-based, human; conditions: Homo sapiens, A-375; A375_P-ERK
# Method in brief: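 Phospho-ERK1/2 (Thr202/Tyr204) detected in lysates by AlphaScreen proximity signal, pairing a total-ERK antibody with a phospho-specific antibody. Before lysis, A375 cells received compound as an 8-point titration for one hour at 37° C.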
# [2] = tested on: IPC-298 (NRAS Q61L) cell line; assay: IPC-298 P-ERK cell activation assay (AlphaScreen); format: cell-based, human; conditions: Homo sapiens, P-ERK cell activation, IPC-298, read-out: Cell activity (EC50 μM) IPC-298_P-ERK
# Method in brief: (§1)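 Phospho-ERK1/2 (Thr202/Tyr204) in lysates quantified via AlphaScreen bead proximity, after one-hour, 37° C. exposure of cells to eight compound concentrations. Lines: IPC-298 human melanoma with activated NRAS; B9 mouse squamous carcinoma with activated HRAS.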
# B9 (HRAS Q61L) cell line = assay: B9 P-ERK cell activation assay (AlphaScreen); format: cell-based, mouse; conditions: Mus musculus, P-ERK cell activation, B9, read-out: Cell activity (EC50 μM) B9_pERK
# Method in brief: as §1
Compound,IC50 (BRAF V600E) [µM],IC50 [1] [µM],EC50 ([2]; numeric bounds) [µM],EC50 (B9 (HRAS Q61L) cell line; numeric bounds) [µM],EC50 ([2]; class symbols) [µM],EC50 (B9 (HRAS Q61L) cell line; class symbols) [µM]
"O=C(c1c(F)ccc(NS(=O)(=O)N2CCOCC2)c1F)c1c[nH]c2ncncc12 [P-2031, N-[2,4-difluoro-3-(7H-pyrrolo[2,3-d]pyrimidine-5-carbonyl)phenyl]morpholine-4-sulfonamide]",1 to 10,> 10,> 10,> 10,–,–
"CCN(C)S(=O)(=O)Nc1cccc(C(=O)c2c[nH]c3ncnc(NC4CCOCC4)c23)c1F [P-2075, 5-[3-[[ethyl(methyl)sulfamoyl]amino]-2-fluoro-benzoyl]-4-(tetrahydropyran-4-ylamino)-7H-pyrrolo[2,3-d]pyrimidine]",0.0001 to 1,0.0001 to 1,> 10,> 10,–,–
"COc1ccnc2[nH]cc(C(=O)c3c(F)ccc(NS(=O)(=O)N4CCOCC4)c3F)c12 [P-2023, N-[2,4-difluoro-3-(4-methoxy-1H-pyrrolo[2,3-b]pyridine-3-carbonyl)phenyl]morpholine-4-sulfonamide]",0.0001 to 1,1 to 10,> 10,> 10,–,–
"CCN(C)S(=O)(=O)Nc1ccc(F)c(C(=O)c2c[nH]c3ncnc(NC4CCC4)c23)c1F [P-2101, 4-(cyclobutylamino)-5-[3-[[ethyl(methyl)sulfamoyl]amino]-2,6-difluoro-benzoyl]-7H-pyrrolo[2,3-d]pyrimidine]",0.0001 to 1,0.0001 to 1,> 10,> 10,–,–
"COc1ccnc2[nH]cc(C(=O)c3c(F)ccc(NS(=O)(=O)C4CCCCC4)c3F)c12 [Compound P-2005, N-[2,4-difluoro-3-(4-methoxy-1H-pyrrolo[2,3-b]pyridine-3-carbonyl)phenyl]cyclohexanesulfonamide]",0.0001 to 1,1 to 10,> 10,> 10,–,–
"CCN(C)S(=O)(=O)Nc1cccc(C(=O)c2c[nH]c3ncnc(NC4CCC(F)(F)CC4)c23)c1F [P-2068, 4-[(4,4-difluorocyclohexyl)amino]-5-[3-[[ethyl(methyl)sulfamoyl]amino]-2-fluoro-benzoyl]-7H-pyrrolo[2,3-d]pyrimidine]",0.0001 to 1,0.0001 to 1,> 10,> 10,–,–
"CCC(C)S(=O)(=O)Nc1cccc(-c2nc(C(C)(C)C)sc2-c2ccnc(N)n2)c1F (stereo not shown) [P-2106, N-[3-[5-(2-aminopyrimidin-4-yl)-2-tert-butyl-thiazol-4-yl]-2-fluoro-phenyl]butane-2-sulfonamide]",0.0001 to 1,0.0001 to 1,> 10,> 10,–,–
"CCCC(C)S(=O)(=O)Nc1ccc(F)c(C(=O)c2c[nH]c3nccc(OC)c23)c1F (stereo not shown) [Compound P-2009, N-[2,4-difluoro-3-(4-methoxy-1H-pyrrolo[2,3-b]pyridine-3-carbonyl)phenyl]pentane-2-sulfonamide]",0.0001 to 1,1 to 10,> 10,> 10,–,–
"O=C(c1c(F)ccc(NS(=O)(=O)C2CCCC2)c1F)c1c[nH]c2nccc(Cl)c12 [P-2015, N-[3-(4-chloro-1H-pyrrolo[2,3-b]pyridine-3-carbonyl)-2,4-difluoro-phenyl]cyclopentanesulfonamide]",0.0001 to 1,> 10,> 10,> 10,–,–
"O=C(c1cccc(NS(=O)(=O)N2CCCC2)c1F)c1c[nH]c2ncnc(NC3CCC3)c12 [P-2081, N-[3-[4-(cyclobutylamino)-7H-pyrrolo[2,3-d]pyrimidine-5-carbonyl]-2-fluoro-phenyl]pyrrolidine-1-sulfonamide]",0.0001 to 1,0.0001 to 1,> 10,> 10,–,–
"O=C(c1c(F)ccc(NS(=O)(=O)N2CCOCC2)c1F)c1c[nH]c2nccc(Cl)c12 [P-2024, N-[3-(4-chloro-1H-pyrrolo[2,3-b]pyridine-3-carbonyl)-2,4-difluoro-phenyl]morpholine-4-sulfonamide]",0.0001 to 1,0.0001 to 1,> 10,> 10,–,–
"N#Cc1ccnc2[nH]cc(C(=O)c3c(F)ccc(NS(=O)(=O)N4CCOCC4)c3F)c12 [P-2022, N-[3-(4-cyano-1H-pyrrolo[2,3-b]pyridine-3-carbonyl)-2,4-difluoro-phenyl]morpholine-4-sulfonamide]",0.0001 to 1,0.0001 to 1,> 10,> 10,–,–
"Cc1ncnc2[nH]cc(C(=O)c3cccc(NS(=O)(=O)N4CCCC4)c3F)c12 [P-2076, N-[2-fluoro-3-(4-methyl-7H-pyrrolo[2,3-d]pyrimidine-5-carbonyl)phenyl]pyrrolidine-1-sulfonamide]",0.0001 to 1,0.0001 to 1,> 10,> 10,–,–
"O=C(c1c(F)ccc(NS(=O)(=O)C2CCCCC2)c1F)c1c[nH]c2ncncc12 [P-2027, N-[2,4-difluoro-3-(7H-pyrrolo[2,3-d]pyrimidine-5-carbonyl)phenyl]cyclohexanesulfonamide]",0.0001 to 1,0.0001 to 1,> 10,> 10,–,–
"COc1ccnc2[nH]cc(C(=O)c3c(F)ccc(NS(=O)(=O)N4CCCC4)c3F)c12 [Compound P-2003, N-[2,4-difluoro-3-(4-methoxy-1H-pyrrolo[2,3-b]pyridine-3-carbonyl)phenyl]pyrrolidine-1-sulfonamide]",0.0001 to 1,0.0001 to 1,> 10,> 10,–,–
"CCN(CC)S(=O)(=O)Nc1ccc(F)c(C(=O)c2c[nH]c3nccc(OC)c23)c1F [Compound P-2004, 3-[3-(diethylsulfamoylamino)-2,6-difluoro-benzoyl]-4-methoxy-1H-pyrrolo[2,3-b]pyridine]",1 to 10,> 10,> 10,> 10,–,–
"CCN(C)S(=O)(=O)Nc1cccc(C(=O)c2c[nH]c3ncnc(OC)c23)c1F [P-2092, 5-[3-[[ethyl(methyl)sulfamoyl]amino]-2-fluoro-benzoyl]-4-methoxy-7H-pyrrolo[2,3-d]pyrimidine]",0.0001 to 1,0.0001 to 1,> 10,> 10,–,–

# Next, values leading:
IC50 (BRAF V600E) [µM],IC50 [1] [µM],EC50 ([2]; numeric bounds) [µM],EC50 (B9 (HRAS Q61L) cell line; numeric bounds) [µM],EC50 ([2]; class symbols) [µM],EC50 (B9 (HRAS Q61L) cell line; class symbols) [µM],Compound
1 to 10,> 10,> 10,> 10,–,–,"O=C(c1cc(C(F)(F)F)cc(NS(=O)(=O)N2CCCC2)c1F)c1c[nH]c2ncc(-c3cnc(C4CC4)nc3)cc12 [P-2179, N-[3-[5-(2-cyclopropylpyrimidin-5-yl)-1H-pyrrolo[2,3-b]pyridine-3-carbonyl]-2-fluoro-5-(trifluoromethyl)phenyl]pyrrolidine-1-sulfonamide]"
0.0001 to 1,0.0001 to 1,> 10,> 10,–,–,"CCN(C)S(=O)(=O)Nc1ccc(F)c(C(=O)c2c[nH]c3ncnc(NC(C)C)c23)c1F [P-2117, 5-[3-[[ethyl(methyl)sulfamoyl]amino]-2,6-difluoro-benzoyl]-4-(isopropylamino)-7H-pyrrolo[2,3-d]pyrimidine]"
0.0001 to 1,1 to 10,> 10,> 10,–,–,"CC(C)(C)c1nc(-c2cccc(NS(=O)(=O)N3CCCC3)c2F)c(-c2ccnc3[nH]ccc23)s1 [P-2120, N-[3-[2-tert-butyl-5-(1H-pyrrolo[2,3-b]pyridin-4-yl)thiazol-4-yl]-2-fluoro-phenyl]pyrrolidine-1-sulfonamide]"
0.0001 to 1,0.0001 to 1,–,–,0.0001 to 1,0.0001 to 1,"CC(C)(C)c1nc(-c2cccc(NS(=O)(=O)N3CC[C@H](F)C3)c2F)c(-c2ccnc(N)n2)s1 [P-2130, (3S)-N-[3-[5-(2-aminopyrimidin-4-yl)-2-tert-butyl-thiazol-4-yl]-2-fluoro-phenyl]-3-fluoro-pyrrolidine-1-sulfonamide]"
0.0001 to 1,0.0001 to 1,> 10,> 10,–,–,"CN(C)CC(C)(C)CNc1ncnc2[nH]cc(C(=O)c3cccc(NS(=O)(=O)N4CCCC4)c3F)c12 [P-2113, N-[3-[4-[[3-(dimethylamino)-2,2-dimethyl-propyl]amino]-7H-pyrrolo[2,3-d]pyrimidine-5-carbonyl]-2-fluoro-phenyl]pyrrolidine-1-sulfonamide]"
0.0001 to 1,0.0001 to 1,–,> 10,0.0001 to 1,–,"COC(=O)N[C@@H](C)CNc1nccc(-c2cn(C(C)C)nc2-c2cc(Cl)cc(NS(=O)(=O)N3CCCCC3)c2F)n1 [P-2181, methyl N-[(1S)-2-[[4-[3-[5-chloro-2-fluoro-3-(1-piperidylsulfonylamino)phenyl]-1-isopropyl-pyrazol-4-yl]pyrimidin-2-yl]amino]-1-methyl-ethyl]carbamate]"
1 to 10,1 to 10,> 10,> 10,–,–,"COC(=O)N[C@@H](C)CNc1nccc(-c2nn(C(C)C)cc2-c2cc(Cl)cc(NS(=O)(=O)N3CCC3)c2F)n1 [P-2163, methyl N-[(1S)-2-[[4-[4-[3-(azetidin-1-ylsulfonylamino)-5-chloro-2-fluoro-phenyl]-1-isopropyl-pyrazol-3-yl]pyrimidin-2-yl]amino]-1-methyl-ethyl]carbamate]"
0.0001 to 1,1 to 10,> 10,> 10,–,–,"COC(=O)C(CC(C)C)Nc1ncnc2[nH]cc(C(=O)c3cccc(NS(=O)(=O)N4CCCC4)c3F)c12 (stereo not shown) [P-2107, methyl 2-[[5-[2-fluoro-3-(pyrrolidin-1-ylsulfonylamino)benzoyl]-7H-pyrrolo[2,3-d]pyrimidin-4-yl]amino]-4-methyl-pentanoate]"
